Measurements from publication PMC10447463, “Data-mining unveils structure–property–activity correlation of viral infectivity enhancing self-assembling peptides” (Nature Communications, 2023).
Read-outs that look alike come from different tables or passages of the source.

What was measured:
[1] = format: physicochemical; design: key to Fibril / Fibril Formation / TEM 2cat / Fibril: 1 = fibrils present; 0 non-fibrillar structures; conditions: for Fibril / Fibril Formation: TEM, 1 mg/mL, uranyl acetate stain, qualitative
[2] = tested on: TZM-bl cells; format: cell-based; conditions: CellTiter-Glo, mean of n = 3 replicates; for viability 0.26 µM: peptide 0.26 µM; for viability 1.3 µM: peptide 1.3 µM; for viability 6.5 µM: peptide 6.5 µM
Summary of the method: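 Viability of TZM-bl cells (10,000 seeded) after 3 days with serially diluted peptides, measured by CellTiter-Glo luminescence. Values normalized to 100% metabolic activity; triplicates.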

[3] = Conversion rate (CR) assay with fluorescamine; format: physicochemical
Summary of the method: (§1)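 Using ATR FT-IR (diamond, 2 cm^-1, 64 scans), lyophilized 1 mg/mL PNF samples gave β-sheet content by a published calculation. Fluorescamine signals of 3 kDa filtrates relative to unfiltered samples, normalised to DMSO as 1, yielded CR in percent.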

[4] = β-sheet content by ATR-FT-IR; format: physicochemical
Summary of the method: as §1

[5] = Turbidity, derived count rate of scattered light; format: physicochemical; conditions: log10 of derived count rate of scattered light, Figure 7B

Substance: CEFEFQF [KB12]
- TEM: 1= fibrils, 0= aggregates (micelle), 0.5 = aggregates and fibrils, -1 = nothing obersved, STD prep [1]: 0

Substance: CKFKFPF
- Fibril / Fibril Formation [1]: 0

Substance: CKIKIQIII [AR0 / F19]
- viability 0.26 µM [2]: 109.6
- viability 1.3 µM [2]: 100.4
- viability 6.5 µM [2]: 87.63
- TEM: 1= fibrils, 0= aggregates (micelle), 0.5 = aggregates and fibrils, -1 = nothing obersved, STD prep [1]: 1

Substance: CKIKIQIRGD [psis21]
- viability 0.26 µM [2]: 104.5
- viability 1.3 µM [2]: 107.1
- viability 6.5 µM [2]: 97.19
- TEM: 1= fibrils, 0= aggregates (micelle), 0.5 = aggregates and fibrils, -1 = nothing obersved, STD prep ([1]; FigS26): 1

Substance: CKIKIWIW
- Fibril / Fibril Formation [1]: 1

Substance: CKIWIQIY
- Fibril / Fibril Formation [1]: 1

Substance: CRFRFHFH
- Fibril / Fibril Formation [1]: 1

Substance: CRLRVGVS
- Fibril / Fibril Formation [1]: 0

Substance: CRLSLSLS
- Fibril / Fibril Formation [1]: 1

Substance: EIEIQINM [TM95 / (TM75)]
- Conversion Rate / % [3]: 79.85%
- TEM: 1= fibrils, 0= aggregates (micelle), 0.5 = aggregates and fibrils, -1 = nothing obersved, STD prep [1]: 1
- FTIR ß-sheet content/ % [4]: 53.87%

Substance: EIEIQINMWQ [VH8]
- Conversion Rate / % [3]: 89.92%
- TEM: 1= fibrils, 0= aggregates (micelle), 0.5 = aggregates and fibrils, -1 = nothing obersved, STD prep [1]: 0.5
- FTIR ß-sheet content/ % [4]: 53.91%

Substance: GYVIIK [reference compound]
- Fibril / Fibril Formation [1]: 0
- Log10 Count Rate [5]: 1.476

Substance: HHHHKAKAKAKAWWWW [TM8]
- TEM: 1= fibrils, 0= aggregates (micelle), 0.5 = aggregates and fibrils, -1 = nothing obersved, STD prep [1]: 0.5

Substance: HHHHKAKAKAKAYYYY [TM10]
- viability 0.26 µM [2]: 107.4
- viability 1.3 µM [2]: 112.1
- viability 6.5 µM [2]: 104.4
- TEM: 1= fibrils, 0= aggregates (micelle), 0.5 = aggregates and fibrils, -1 = nothing obersved, STD prep [1]: 0

Substance: HHHHKIKIQINMYYYY [TM16]
- viability 0.26 µM [2]: 118.7
- viability 1.3 µM [2]: 114.9
- viability 6.5 µM [2]: 85.37
- Conversion Rate / % ([3]; fluorescamine assay): 98.42%
- TEM: 1= fibrils, 0= aggregates (micelle), 0.5 = aggregates and fibrils, -1 = nothing obersved, STD prep [1]: 1
- FTIR ß-sheet content/ % ([4]; ATR-FT-IR): 46.73%

Substance: HIHIQIC [CN12]
- viability 0.26 µM [2]: 99.21
- viability 1.3 µM [2]: 105
- viability 6.5 µM [2]: 101.2
- Conversion Rate / % ([3]; fluorescamine assay): 82.72%
- TEM: 1= fibrils, 0= aggregates (micelle), 0.5 = aggregates and fibrils, -1 = nothing obersved, STD prep [1]: 1
- FTIR ß-sheet content/ % ([4]; ATR-FT-IR): 48.25%

Substance: HLHLPLL [CN14]
- Conversion Rate / % ([3]; fluorescamine assay): 37.51%
- TEM: 1= fibrils, 0= aggregates (micelle), 0.5 = aggregates and fibrils, -1 = nothing obersved, STD prep [1]: 0.5
- FTIR ß-sheet content/ % ([4]; ATR-FT-IR): 49.19%

Substance: IFQINS [reference compound]
- Fibril / Fibril Formation [1]: 1
- Log10 Count Rate [5]: 1.56

Substance: IIIK [reference compound]
- Fibril / Fibril Formation [1]: 0
- Log10 Count Rate [5]: 1.413

Substance: IIIQGK [reference compound]
- Fibril / Fibril Formation [1]: 0
- Log10 Count Rate [5]: 0.9808

Substance: IKFLSVN [reference compound]
- Fibril / Fibril Formation [1]: 1
- Log10 Count Rate [5]: 2.136

Substance: KAKLTCT
- Fibril / Fibril Formation [1]: 0

Substance: KAKQAANMWQ [JG6]
- TEM: 1= fibrils, 0= aggregates (micelle), 0.5 = aggregates and fibrils, -1 = nothing obersved, STD prep [1]: 0.5

Substance: KAQCTLP
- Fibril / Fibril Formation [1]: 0

Substance: KFKFQFF [TG6]
- TEM: 1= fibrils, 0= aggregates (micelle), 0.5 = aggregates and fibrils, -1 = nothing obersved, STD prep [1]: 1

Substance: KFKFQFFF [TG12]
- viability 0.26 µM [2]: 108.2
- viability 1.3 µM [2]: 109.4
- viability 6.5 µM [2]: 97
- Conversion Rate / % [3]: 97.92%
- Conversion Rate / % ([3]; fluorescamine assay): 97.92%
- TEM: 1= fibrils, 0= aggregates (micelle), 0.5 = aggregates and fibrils, -1 = nothing obersved, STD prep [1]: 1
- FTIR ß-sheet content/ % [4]: 49.11%
- FTIR ß-sheet content/ % ([4]; ATR-FT-IR): 49.11%

Substance: KFKFQFN [BL7]
- TEM: 1= fibrils, 0= aggregates (micelle), 0.5 = aggregates and fibrils, -1 = nothing obersved, STD prep [1]: 1

Substance: KFKFQFNMW [BL5 / KB13]
- TEM: 1= fibrils, 0= aggregates (micelle), 0.5 = aggregates and fibrils, -1 = nothing obersved, STD prep [1]: 1

Substance: KFKQFFINMWQ [VH14]
- TEM: 1= fibrils, 0= aggregates (micelle), 0.5 = aggregates and fibrils, -1 = nothing obersved, STD prep [1]: 0

Substance: KFQFNMW
- Fibril / Fibril Formation [1]: 1

Substance: KIKIKIKI [TM13]
- TEM: 1= fibrils, 0= aggregates (micelle), 0.5 = aggregates and fibrils, -1 = nothing obersved, STD prep [1]: 0

Substance: KIKIKIKIWW [TM21]
- viability 0.26 µM [2]: 95.22
- viability 1.3 µM [2]: 94.23
- viability 6.5 µM [2]: 80.72
- TEM: 1= fibrils, 0= aggregates (micelle), 0.5 = aggregates and fibrils, -1 = nothing obersved, STD prep [1]: 0

Substance: KIKIKIKIWWWW [TM12]
- viability 0.26 µM [2]: 125.9
- viability 1.3 µM [2]: 106.4
- viability 6.5 µM [2]: 86.48
- TEM: 1= fibrils, 0= aggregates (micelle), 0.5 = aggregates and fibrils, -1 = nothing obersved, STD prep [1]: 0

Substance: KIKIQIAMWQ [JR4]
- TEM: 1= fibrils, 0= aggregates (micelle), 0.5 = aggregates and fibrils, -1 = nothing obersved, STD prep ([1]; FigS26): 1

Substance: KIKIQII [TG1 / (KM4)]
- TEM: 1= fibrils, 0= aggregates (micelle), 0.5 = aggregates and fibrils, -1 = nothing obersved, STD prep [1]: 1

Substance: KIKIQIII [TG7]
- TEM: 1= fibrils, 0= aggregates (micelle), 0.5 = aggregates and fibrils, -1 = nothing obersved, STD prep [1]: 1

Substance: KIKIQIMQWN [VH16]
- TEM: 1= fibrils, 0= aggregates (micelle), 0.5 = aggregates and fibrils, -1 = nothing obersved, STD prep ([1]; FigS26): 1

Substance: KIKIQIMWNQ [VH15]
- TEM: 1= fibrils, 0= aggregates (micelle), 0.5 = aggregates and fibrils, -1 = nothing obersved, STD prep ([1]; FigS26): 1

Substance: KIKIQIN [JGB3]
- TEM: 1= fibrils, 0= aggregates (micelle), 0.5 = aggregates and fibrils, -1 = nothing obersved, STD prep [1]: 1

Substance: KIKIQINAWQ [JR3-II]
- TEM: 1= fibrils, 0= aggregates (micelle), 0.5 = aggregates and fibrils, -1 = nothing obersved, STD prep ([1]; FigS26): 1
